The test system of series [1] is Abraxane®-treated cells. In words: In vitro cellular cytotoxicity assay with VEGF-A or Avastin®. In kind it is cell-based. The note with it: Abraxane® 1 to 24 nM. The method, then: Cells were treated with Abraxane® in a range of concentrations (1 to 24 nM).
For series [2], the system named is Abraxane®-treated cells. The series is described as follows: In vitro clonogenic assay. In kind it is cell-based. As to the method:
Cells were treated with saline control, Abraxane® alone, VEGF-A alone, Avastin® alone, Abraxane®+VEGF-A or Abraxane®+Avastin®.

In series [3] the test system is Luciferase-expressing MDA-MB-231 human breast cancer xenografts. The series is described as follows: Luciferase-expressing MDA-MB-231 xenografts, tumor growth (Example 26). In kind it is in vivo, nude (nu/nu) mice.
Method: Abraxane®, either alone or in combination, was administered at 10 mg/kg/day daily for 5 days in two cycles separated by 1 week. […] Mice were monitored for tumor growth and drug toxicity. Mice were sacrificed when the mean tumor volume in the saline-treated control group reached 2000 mm^3.
Tumor growth inhibition (TGI) was calculated by comparing mean tumor volume of test groups to that of the control group at the last measurement of the control group.
The test system of series [4] is MDA-MB-231-Luc+ human breast cancer xenografts. In words: MDA-MB-231-Luc+ xenografts, one or two cycles of Abraxane® with Avastin® (Example 29). The following applies: for % Complete Regression: day 65. Type of series: in vivo, nude (nu/nu) mice. As to the method: One or two cycles of Abraxane® were administered. In two-cycle Abraxane® treatment, a second cycle of Abraxane® (10 mg/kg, i.v. qd×5) was administered one week after conclusion of the first cycle.

A further series has as its system MDA-MB-435-Luc+ tumors. In words: MDA-MB-435-Luc+ tumor growth (Example 31). Type of series: in vivo, ICR SCID mice. The method, then: MDA-MB-435-Luc+ (“435-Luc+”) cells were implanted subcutaneously into the mammary fat pad of 4 to 6 week old female ICR SCID mice (Taconic, Hudson, N.Y.). Every 2-3 days, perpendicular tumor diameters were measured by digital caliper and used to calculate tumor volume according to the formula: volume=Dd^2π/6, where D=larger diameter and d=smaller diameter. […] Animal care was in accordance with institutional guidelines.
Two cycles of Abraxane® treatment were administered, each for 5 consecutive days with one week of rest between cycles. […] To allow maximal development of metastatic foci, mice were sacrificed when the average tumor volume in the control group reached 2000 mm^3.

The test system of series [5] is lymph node metastasis of MDA-MB-435-Luc+. The series is described as follows: MDA-MB-435-Luc+ lymph node metastasis. In kind it is in vivo, ICR SCID mice. The note with it: ABX 10 mg/kg two cycles; Avastin® 4 mg/kg. As to the method: Two cycles of Abraxane® treatment were administered, each for 5 consecutive days with one week of rest between cycles. […] The control group received PBS injected i.v. or i.p. […] Lymph nodes and lungs were excised, washed in PBS, and homogenized in 0.35 ml of cold CCLR buffer (Promega, Madison, Wis.) containing a protease inhibitor cocktail and PMSF (Sigma, Mo.). Cell debris was removed by centrifugation. Protein concentrations of cleared lysates were determined by Bradford assay (Bio-Rad, Hercules, Calif.). […] CCLR buffer without tissue homogenates and lymph nodes or lungs of non-tumor bearing mice were assayed for background signal and subtracted from the results. The net results were expressed as relative light units (“RLU”) normalized per mg of total lysate protein. […] This value was chosen because it was the minimal signal reproducibly detected above background in metastatic tissues, independently confirmed by immunohistochemical detection (data not shown). Differences in lymph node and lung metastases were assessed for statistical significance by Fisher's exact test using GraphPad InStat (GraphPad Inc., San Diego, Calif.) or SPSS 14.0 (SPSS, Inc., Chicago, Ill.).

Series [6] concerns pulmonary metastasis of MDA-MB-435-Luc+. In words: MDA-MB-435-Luc+ pulmonary metastasis. The note with it: ABX 10 mg/kg two cycles; Avastin® 4 mg/kg. Type of series: in vivo, ICR SCID mice.
Method: Tumor metastasis was determined by measuring luciferase activity in tissue extracts derived from 10 axillary lymph nodes (“LN”) and both lobes of the lungs. Lymph nodes and lungs were excised, washed in PBS, and homogenized in 0.35 ml of cold CCLR buffer (Promega, Madison, Wis.) containing a protease inhibitor cocktail and PMSF (Sigma, Mo.). Cell debris was removed by centrifugation. Protein concentrations of cleared lysates were determined by Bradford assay (Bio-Rad, Hercules, Calif.). Fifty μl of Luciferase Assay Reagent (Promega, Madison, Wis.) was mixed with 10 μl of cleared lysate and a 10 second average of luminescence was detected using a single tube luminometer (Berthold, Germany). […] The net results were expressed as relative light units (“RLU”) normalized per mg of total lysate protein. […] Differences in lymph node and lung metastases were assessed for statistical significance by Fisher's exact test using GraphPad InStat (GraphPad Inc., San Diego, Calif.) or SPSS 14.0 (SPSS, Inc., Chicago, Ill.).
Series [7] has as its system MDA-MB-231-Luc+ lymphatic and pulmonary metastases. The series is described as follows: Lymphatic and pulmonary metastasis of well-established 231-Luc+ tumors (Example 32). In kind it is in vivo, nu/nu mice. The following applies: Abraxane® 30 mg/kg qd×5; Avastin® 4 mg/kg q2×wkly; tumors ~460 mm^3. As to the method: MDA-MB-231 or 231-Luc^+ cells were implanted into the MFP of 4 to 6 week old female nu/nu mice (Harlan Sprague-Delaney, Indianapolis, Ind.) by standard methods. Briefly, mice were anesthetized and 100 μl of cell suspension containing 4×10^6 cells and 50% Matrigel (Sigma, Mo.) were injected into the MFP. Every 2-3 days, perpendicular tumor diameters were measured by digital caliper and used to calculate tumor volume according to the formula: Volume=Dd^2π/6, where D=larger diameter and d=smaller diameter. […] Animal care was in accordance with institutional guidelines.
Luciferase-expressing orthotopic MDA-MB-231 (231-Luc+) xenografts were grown to well-established tumors (˜460 mm^3) and randomized to four groups of N=5, 6 or 7.
Metastases of MDA-MB-231-Luc+ tumor cells were identified by measuring luciferase activity in tissue extracts from lymph nodes and lungs, as described in Example 31 above. […] This value was chosen because it represented the minimal signal which could be reproducibly detected above background in tissues in which metastases were independently confirmed by immunohistochemical detection of human cells. The net results were expressed as relative light units (RLU) normalized per mg of total lysate protein, and are presented in FIG. 17A (lymphatic metastasis) and FIG. 17B (pulmonary metastasis).

The test system of another series is VEGF-A protein. The series is described as follows: VEGF-A protein in tumor extracts by ELISA.
Series [8] relates to MDA-MB-231 human breast cancer xenografts. In words: MDA-MB-231 xenografts: tumor growth, necrosis, hypoxia (Example 24). The following applies: i.v. qdx5; Taxol® 10, Abraxane® 15, Doxorubicin 10 mg/kg/day.
The subject of series [9] is MDA-MB-435 human breast tumor xenografts. The series is described as follows: MDA-MB-435 human tumor xenografts treated with HKP, Abraxane® or both. The note with it: nineteen weeks; HKP 250 ug i.v. weekly x16; Abraxane® 10 mg/kg/day i.v. x5 days. In kind it is in vivo, mice. As to the method: Methods: MDA-MB-435 human tumor xenografts were established at an average tumor volume of 100 mm^3, mice were randomized into groups of 12-13 animals and treated with HKP, Abraxane®, or HKP and Abraxane®. HKP was delivered i.v. (250 ug), once a week, for 16 weeks. Abraxane® was administered i.v., daily for 5 days at 10 mg/kg/day only for the first week of treatment. The Abraxane® dose used was substantially below its MTD (30 mg/kg/day, qd×5) to prevent the tumor from complete regression so effect of HKP could be noted.

For the next series, the system named is MCF7-S breast carcinoma. In words: Cytotoxic activity in MCF7-S. Type of series: cell-based, human.
Series [10] deals with MCF7-R (pgp+) multidrug resistant variant. The method, then:
(§1) Its cytotoxicity was also assessed against the NCI-60 human tumor cell line panel.

In series [11] the test system is NCI-60 human tumor cell line panel. In words: NCI-60 human tumor cell line panel. The following applies: NCI 60 panel. Type of series: cell-based. As to the method: as §1
Where [12] appears, read: Experiment No. 1: one cycle, Avastin® 2 mg/kg.
The mark [13] stands for this setting: Experiment No. 2: two cycles, Avastin® 4 mg/kg.

We go through four molecules from US9561288B2, “Combinations and modes of administration of therapeutic agents and combination therapy” (Abraxis BioScience, LLC, priority 2005, dated 2017).

Method for VEGF-A protein: All drugs and control saline were administered i.v. in a volume of 100 μl daily for 5 days. Mice were sacrificed, tumors were harvested and tumor cellular extracts were prepared. VEGF-A protein levels in tumor extracts were determined by ELISA.

With “Avastin®: anti-VEGF antibody bevacizumab”, the “effect of addition on in vitro cytotoxicity of Abraxane®” value with Abraxane®-treated cells [1] is given as “increased the in vitro cytotoxicity of Abraxane®”. Also, in the series with Abraxane®-treated cells [2], the “number of colonies formed” value is given as “slight reduction in the number of colonies formed”. The “% TGI” value in series [3] (Abraxane® 10 mg/kg/day two cycles, Avastin® 4 mg/kg) was determined as 12.56%; in series [4] (setting [12]) it was 54.16%; in series [4] (setting [13]) it was 12.56%; in the series with MDA-MB-435-Luc+ tumors (ABX 10 mg/kg two cycles, Avastin® 4 mg/kg), 60.79%. The “Mean Tumor Volume” value in [3] (Abraxane® 10 mg/kg/day x5 days, two cycles, Avastin® 4 mg/kg twice a week for 6 weeks) was found to be 2089 ± 251 mm^3; in series [4] (Experiment No. 1: one cycle of Abraxane® 10 mg/kg, Avastin® 2 mg/kg), 953 ± 127 mm^3; in series [4] (Experiment No. 2: two cycles of Abraxane® 10 mg/kg, Avastin® 4 mg/kg), 2089 ± 251 mm^3. The “% Complete Regression” value was determined as 0% in [3] (day 65, Abraxane® two cycles, Avastin® 4 mg/kg); 0% in [4] (setting [12]); 0% in [4] (setting [13]). The “% TGD” value came out at 13% in [4] (Experiment No. 1: one cycle, Avastin® 2 mg/kg, time to 1000 mm^3 vs control) and 7% in series [4] (setting [13]). In the series on MDA-MB-435-Luc+ tumors (92 days), the “% Complete Regressions” value stood at 0%. Besides, the “tumor volume” value with MDA-MB-435-Luc+ tumors (ABX 10 mg/kg i.v. qd×5 two cycles, Avastin® 4 mg/kg i.p. twice a week) is on record as 792 mm^3. The “Lymph node metastasis % Inhibition vs. Control” value in series [5] is reported as 100%. Also, the “Pulmonary metastasis % Inhibition vs. Control” value in [6] was 50%. The “lymphatic and pulmonary metastases” value in series [7] is reported as “failed to prevent metastasis”.

`COc1cccc2c1C(=O)c1c(O)c3c(c(O)c1C2=O)C[C@@](O)(C(=O)CO)C[C@@H]3O[C@H]1C[C@H](N)[C@H](O)[C@H](C)O1` [Doxorubicin] gave a VEGF-A in the series on VEGF-A protein (tumor extracts, i.v. qdx5) of 754 ± 49 pg/mg protein. For the same molecule, in the series on VEGF-A protein (vs saline control), the “increase in VEGF-A protein levels” value was found to be 124%. Further, in series [8], the “% TGI” value was found to be 45% and the “Mean Tumor Volume” value was determined as 287 ± 56 mm^3.

Consider CNGRC-GG-d(KLAKLAK)2 [HKP], for which the tumor volume in series [9] is given as 4,372 mm^3.

With `COc1cc2c(c(OC)c1OC)-c1ccc(SC)c(=O)cc1[C@@H](NC(=O)CCNC(=O)N[C@H]1CCc3cc(OC)c(OC)c(OC)c3-c3ccc(SC)c(=O)cc31)CC2` [IDN5404], the IC50 with MCF7-S breast carcinoma was 1.7 ± 0.1 nM; in [10] (MCF7-R), 40 ± 3.8 nM; in series [11], less than 10 nM. Further, the “fold resistance MCF7-R vs MCF7-S” value in series [10] is greater than 10 fold.
